In patent US11566007B2, “Ras inhibitors” (Revolution Medicines, Inc., priority 2019, dated 2023):
“And” between values parts separate entries of the source, which are not always exact repeats. Identical values can stand only once. Like-named read-outs stand apart in the source and are kept apart here.

Assays:
[1] = target: KRAS Q61H (Homo sapiens (Human), UniProt P01116+P62937, Q61H); assay: Ras-Raf (BRAF RBD) disruption / FRET / MOA assay, KRAS Q61H; assay type: biochemical; conditions: Ras-Raf disruption/FRET/MOA assay; class symbols; read-out: KRAS Q61H FRET data IC50
KRAS Q61H, sequence (P01116-2 other isoform, or with tags, fused parts or gaps Q61H): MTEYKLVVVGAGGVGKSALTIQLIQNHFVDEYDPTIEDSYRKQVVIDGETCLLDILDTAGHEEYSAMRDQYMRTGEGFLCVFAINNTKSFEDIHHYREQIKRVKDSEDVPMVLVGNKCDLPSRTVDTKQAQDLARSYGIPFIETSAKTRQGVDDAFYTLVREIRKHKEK
KRAS Q61H, sequence (P62937 whole entry, canonical isoform): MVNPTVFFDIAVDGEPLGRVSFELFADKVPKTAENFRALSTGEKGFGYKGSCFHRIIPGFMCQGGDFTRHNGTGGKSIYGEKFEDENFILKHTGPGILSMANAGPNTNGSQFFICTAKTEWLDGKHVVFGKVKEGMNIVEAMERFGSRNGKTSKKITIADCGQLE
Method: (§1) The purpose of this biochemical assay is to measure the ability of test compounds to facilitate ternary complex formation between a nucleotide-loaded Ras isoform and cyclophilin A; the resulting ternary complex disrupts binding to a BRAF^RBD construct, inhibiting Ras signaling through a RAF effector.
(§2) […]. Compound is present in plate wells as a 10-point 3-fold dilution series starting at a final concentration of 30 μM. After incubation at 25° C. for 3 hours, a mixture of Anti-His Eu-W1024 and anti-GST allophycocyanin is then added to assay sample wells at final concentrations of 10 nM and 50 nM, respectively, and the reaction incubated for an additional 1.5 hours. […] Compounds that facilitate disruption of a Ras:RAF complex are identified as those eliciting a decrease in the TR-FRET ratio relative to DMSO control wells.
(§3) Note—The following protocol describes a procedure for monitoring disruption of K-Ras G12C (GMP-PNP) binding to BRAF^RBD by a compound of the invention. This protocol may also be executed substituting other Ras proteins or nucleotides.
(§4) The purpose of this biochemical assay was to measure the ability of test compounds to facilitate ternary complex formation between a nucleotide-loaded K-Ras isoform and Cyclophilin A; the resulting ternary complex disrupts binding to a BRAF^RBD construct, inhibiting K-Ras signaling through a RAF effector. Data is reported as IC50 values.
as §2, with “Compound was” for “Compound is”, “allophycocyanin was” for “allophycocyanin is”, “a K-Ras:RAF” for “a Ras:RAF”, “complex were” for “complex are”

[2] = system: NCI-H358 (K-Ras G12C); assay: CellTiter-Glo cell viability assay, NCI-H358; assay type: cell-based, human; conditions: NCI-H358, 5-day treatment; class symbols; read-out: Additional H358 Cell Viability assay data (K-Ras G12C, IC50)
How it was run: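 Viability of K-Ras mutant lines is measured by ATP luminescence after five days of compound treatment. Percent of DMSO control is calculated and dose-response data are fitted with a four-parameter logistic equation.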

[3] = target: K-Ras G13C (Homo sapiens (Human), UniProt P01116+P62937, G13C); assay: Ras-Raf (BRAF RBD) disruption / FRET / MOA assay, KRAS G13C; assay type: biochemical; conditions: KRAS G13C; Ras-Raf disruption/FRET/MOA assay; read-out: IC50* KRAS G13C FRET data
K-Ras G13C, sequence (P01116-2 other isoform, or with tags, fused parts or gaps G13C): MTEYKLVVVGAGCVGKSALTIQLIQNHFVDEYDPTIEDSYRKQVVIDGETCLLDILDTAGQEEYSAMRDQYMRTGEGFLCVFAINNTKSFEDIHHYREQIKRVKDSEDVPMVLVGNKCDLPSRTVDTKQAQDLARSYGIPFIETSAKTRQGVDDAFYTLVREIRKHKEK
K-Ras G13C, sequence (P62937 whole entry): as the sequence (P62937 whole entry, canonical isoform) above
How it was run: (§5)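 Ternary complex formation (Ras–compound–cyclophilin A) displacing BRAF RBD, monitored by TR-FRET. Three hours at 25° C with compound (top 30 μM final), then 1.5 h with the labelled antibodies. Lower ratio than DMSO indicates disruption; IC50 reported.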

[4] = target: KRAS G12D (Homo sapiens (Human), UniProt P01116+P62937, G12D); assay: Ras-Raf (BRAF RBD) disruption / FRET / MOA assay, KRAS G12D; assay type: biochemical; conditions: Ras-Raf disruption/FRET/MOA assay; class symbols; read-out: KRAS G12D FRET data IC50
KRAS G12D, sequence (P01116-2 other isoform, or with tags, fused parts or gaps G12D): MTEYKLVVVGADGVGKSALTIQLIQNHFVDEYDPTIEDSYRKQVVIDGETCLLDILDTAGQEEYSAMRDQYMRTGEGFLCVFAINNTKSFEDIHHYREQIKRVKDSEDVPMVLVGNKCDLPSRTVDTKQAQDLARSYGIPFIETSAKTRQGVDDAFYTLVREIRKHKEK
KRAS G12D, sequence (P62937 whole entry): as the sequence (P62937 whole entry, canonical isoform) above
How it was run: as §5

[5] = target: NRAS WT (Homo sapiens (Human), UniProt P01111+P62937); assay: Ras-Raf (BRAF RBD) disruption / FRET / MOA assay, NRAS WT; assay type: biochemical; conditions: read-out: IC50* NRAS WT FRET data
NRAS WT, sequence (P01111 whole entry): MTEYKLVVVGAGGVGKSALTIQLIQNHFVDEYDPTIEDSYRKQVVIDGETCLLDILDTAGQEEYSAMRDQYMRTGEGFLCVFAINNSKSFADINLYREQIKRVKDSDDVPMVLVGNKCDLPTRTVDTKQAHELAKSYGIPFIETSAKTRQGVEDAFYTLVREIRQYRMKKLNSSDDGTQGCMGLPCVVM
NRAS WT, sequence (P62937 whole entry): as the sequence (P62937 whole entry, canonical isoform) above
Method: as §1, §2, §3, §4
as §2, with “Compound was” for “Compound is”, “allophycocyanin was” for “allophycocyanin is”, “a K-Ras:RAF” for “a Ras:RAF”, “complex were” for “complex are”

[6] = target: NRAS G12C (Homo sapiens (Human), UniProt P01111+P62937, G12C); assay: Ras-Raf (BRAF RBD) disruption / FRET / MOA assay, NRAS G12C; assay type: biochemical; conditions: read-out: IC50* NRAS G12C FRET data
NRAS G12C, sequence (P01111 whole entry G12C): as the sequence (P01111 whole entry) above, with G12C counted along it
NRAS G12C, sequence (P62937 whole entry): as the sequence (P62937 whole entry, canonical isoform) above
How it was run: as §5

[7] = system: NCI-H358 cells (K-Ras G12C); assay: Potency assay: pERK in NCI-H358 cells; assay type: cell-based, human; conditions: H358 KRAS G12C, read-out: pERK EC50
How it was run: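 4 h cpd, 37 °C; 10-pt 3-fold series, 10 mM DMSO top stock, duplicates. Readout pERK: AlphaLISA SureFire Ultra or In-Cell Western (IR-800CW secondary, DRAQ5 DNA stain). IC50, 4-PL fit vs log conc.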

[8] = target: KRAS G12V (Homo sapiens (Human), UniProt P01116+P62937, G12V); assay: Ras-Raf (BRAF RBD) disruption / FRET / MOA assay, KRAS G12V; assay type: biochemical; conditions: read-out: IC50* KRAS G12V FRET data
KRAS G12V, sequence (P01116-2 other isoform, or with tags, fused parts or gaps G12V): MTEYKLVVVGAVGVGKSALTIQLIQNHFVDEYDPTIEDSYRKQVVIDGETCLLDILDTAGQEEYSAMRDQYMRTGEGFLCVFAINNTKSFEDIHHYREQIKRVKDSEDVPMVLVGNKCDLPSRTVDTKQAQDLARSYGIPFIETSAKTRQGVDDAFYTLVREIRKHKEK
KRAS G12V, sequence (P62937 whole entry): as the sequence (P62937 whole entry, canonical isoform) above
How it was run: as §5

[9] = target: KRAS G13D (Homo sapiens (Human), UniProt P01116+P62937, G13D); assay: Ras-Raf (BRAF RBD) disruption / FRET / MOA assay, KRAS G13D; assay type: biochemical; conditions: read-out: IC50* KRAS G13D FRET data
KRAS G13D, sequence (P01116-2 other isoform, or with tags, fused parts or gaps G13D): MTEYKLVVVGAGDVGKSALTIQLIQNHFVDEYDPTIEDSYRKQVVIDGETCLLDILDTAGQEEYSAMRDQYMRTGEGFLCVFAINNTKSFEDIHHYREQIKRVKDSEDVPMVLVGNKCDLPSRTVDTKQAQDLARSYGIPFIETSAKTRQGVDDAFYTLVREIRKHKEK
KRAS G13D, sequence (P62937 whole entry): as the sequence (P62937 whole entry, canonical isoform) above
How it was run: as §5

[10] = target: KRAS WT (Homo sapiens (Human), UniProt P01116+P62937); assay: Ras-Raf (BRAF RBD) disruption / FRET / MOA assay, KRAS WT; assay type: biochemical; conditions: read-out: IC50* KRAS WT FRET data
KRAS WT, sequence (P01116-2 other isoform, or with tags, fused parts or gaps): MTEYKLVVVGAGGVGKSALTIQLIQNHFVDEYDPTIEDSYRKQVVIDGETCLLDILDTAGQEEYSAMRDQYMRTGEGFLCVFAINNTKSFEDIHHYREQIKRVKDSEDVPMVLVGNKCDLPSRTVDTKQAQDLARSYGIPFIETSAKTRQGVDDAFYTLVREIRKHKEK
KRAS WT, sequence (P62937 whole entry): as the sequence (P62937 whole entry, canonical isoform) above
How it was run: as §5

[11] = target: KRAS G12S (Homo sapiens (Human), UniProt P01116+P62937, G12S); assay: Ras-Raf (BRAF RBD) disruption / FRET / MOA assay, KRAS G12S; assay type: biochemical; conditions: Ras-Raf disruption/FRET/MOA assay; class symbols; read-out: KRAS G12S FRET data IC50
KRAS G12S, sequence (P01116-2 other isoform, or with tags, fused parts or gaps G12S): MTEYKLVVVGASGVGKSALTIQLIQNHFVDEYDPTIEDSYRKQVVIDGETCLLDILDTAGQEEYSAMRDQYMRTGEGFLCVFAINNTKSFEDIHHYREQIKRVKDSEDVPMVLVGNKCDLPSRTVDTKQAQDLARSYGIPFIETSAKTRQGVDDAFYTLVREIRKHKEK
KRAS G12S, sequence (P62937 whole entry): as the sequence (P62937 whole entry, canonical isoform) above
How it was run: as §5

[12] = target: NRAS Q61R (Homo sapiens (Human), UniProt P01111+P62937, Q61R); assay: Ras-Raf (BRAF RBD) disruption / FRET / MOA assay, NRAS Q61R; assay type: biochemical; conditions: NRAS Q61R; Ras-Raf disruption/FRET/MOA assay; read-out: IC50* NRAS Q61R FRET data
NRAS Q61R, sequence (P01111 whole entry Q61R): as the sequence (P01111 whole entry) above, with Q61R counted along it
NRAS Q61R, sequence (P62937 whole entry): as the sequence (P62937 whole entry, canonical isoform) above
Method: as §1, §2, §3, §4
as §2, with “Compound was” for “Compound is”, “allophycocyanin was” for “allophycocyanin is”, “a K-Ras:RAF” for “a Ras:RAF”, “complex were” for “complex are”

[13] = target: NRAS Q61K (Homo sapiens (Human), UniProt P01111+P62937, Q61K); assay: Ras-Raf (BRAF RBD) disruption / FRET / MOA assay, NRAS Q61K; assay type: biochemical; conditions: NRAS Q61K; Ras-Raf disruption/FRET/MOA assay; read-out: IC50* NRAS Q61K FRET data
NRAS Q61K, sequence (P01111 whole entry Q61K): as the sequence (P01111 whole entry) above, with Q61K counted along it
NRAS Q61K, sequence (P62937 whole entry): as the sequence (P62937 whole entry, canonical isoform) above
Method: as §1, §2, §3, §4
as §2, with “Compound was” for “Compound is”, “allophycocyanin was” for “allophycocyanin is”, “a K-Ras:RAF” for “a Ras:RAF”, “complex were” for “complex are”

[14] = target: K-Ras G12C (Homo sapiens (Human), UniProt P01116+P62937, G12C); assay: Ras-Raf (BRAF RBD) disruption / FRET / MOA assay, KRAS G12C; assay type: biochemical; conditions: KRAS G12C; Ras-Raf disruption/FRET/MOA assay; read-out: IC50* KRAS G12C FRET data
K-Ras G12C, sequence (P01116-2 other isoform, or with tags, fused parts or gaps G12C): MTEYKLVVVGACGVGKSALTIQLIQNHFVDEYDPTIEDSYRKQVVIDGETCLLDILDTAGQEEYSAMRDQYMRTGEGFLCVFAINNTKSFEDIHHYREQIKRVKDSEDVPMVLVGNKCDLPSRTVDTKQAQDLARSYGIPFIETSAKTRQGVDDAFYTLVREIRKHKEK
K-Ras G12C, sequence (P62937 whole entry): as the sequence (P62937 whole entry, canonical isoform) above
How it was run: as §5

## CCn1c(-c2cccnc2[C@H](C)OC)c2c3cc(ccc31)N1CCC[C@@H](C[C@H](NC(=O)[C@H](C(C)C)N(C)C(=O)C3(F)CCN(C(=O)C#CC(C)(C)N(C)C)CC3)C(=O)N3CCC[C@H](N3)C(=O)OCC(C)(C)C2)C1 (atropisomer, axis not shown) [Example A616]
[1]
  IC50: 1000 to 10000 nM
[2]
  IC50: < 10 nM
[3]
  IC50: 1 to 10 µM
[4]
  IC50: > 10 µM
[5]
  IC50: 1000 to 10000 nM
[6]
  IC50: < 10 nM
[7]
  EC50: < 5 µM
[8]
  IC50: 1000 to 10000 nM
[9]
  IC50: 1 to 10 µM
[10]
  IC50: 1000 to 10000 nM
[11]
  IC50: 1000 to 10000 nM

## C=CC(=O)N1CC[C@H](C(=O)N(C)[C@H](C(=O)N[C@H]2Cc3cc(O)cc(c3)-c3ccc4c(c3)c(c(-c3ccc(N5CCN(C)CC5)nc3)n4CC)CC(C)(C)COC(=O)[C@@H]3CCCN(N3)C2=O)C(C)C)C1 [Example A089]
[12]
  IC50: 1000 to 10000 nM
[1]
  IC50: 100 to 1000 nM
[3]
  IC50: 1 to 10 µM
[4]
  IC50: > 10 µM
[5]
  IC50: 1000 to 10000 nM
[13]
  IC50: 1000 to 10000 nM
[14]
  IC50: 100 to 1000 nM
[8]
  IC50: 1000 to 10000 nM
[10]
  IC50: 1000 to 10000 nM
[11]
  IC50: 1000 to 10000 nM

## C=CC(=O)N1CC[C@H](C(=O)N(C)[C@H](C(=O)N[C@H]2Cc3cc(O)cc(c3)-c3ccc4c(c3)c(c(-c3cccnc3)n4C(C)(C)C#N)CC(C)(C)COC(=O)[C@@H]3CCCN(N3)C2=O)C(C)C)C1 [Example A148]
[12]
  IC50: 100 to 1000 nM
[1]
  IC50: 10 to 100 nM
[3]
  IC50: > 10 µM and 1 to 10 µM
[4]
  IC50: 1 to 10 µM and > 10 µM
[5]
  IC50: 100 to 1000 nM
[13]
  IC50: 100 to 1000 nM
[14]
  IC50: 10 to 100 nM and 1000 to 10000 nM
[7]; Homo sapiens, NCI-H358
  EC50: < 5 µM
[8]
  IC50: 100 to 1000 nM and > 10000 nM
[9]
  IC50: 1 to 10 µM and > 10 µM
[10]
  IC50: 100 to 1000 nM and > 10000 nM
[11]
  IC50: 100 to 1000 nM and > 10000 nM

## C=CC(=O)N1CC[C@H](C(=O)N(C)[C@H](C(=O)N[C@H]2Cc3cc(O)cc(c3)-c3ccc4c(c3)c(c(-c3cnn5c3[C@@H](OC)CCC5)n4CC)CC(C)(C)COC(=O)[C@@H]3CCCN(N3)C2=O)C(C)C)C1 [Example A333]
[1]
  IC50: 10 to 100 nM
[2]
  IC50: < 10 nM
[4]
  IC50: 0.1 to 1 µM
[7]
  EC50: < 5 µM
[11]
  IC50: 10 to 100 nM

## C=CC(=O)N1CCN(C(=O)N(C)[C@H](C(=O)N[C@H]2Cc3cc(O)cc(c3)-c3ccc4c(c3)c(c(-c3cccnc3[C@H](C)OC)n4CC)CC(C)(C)COC(=O)[C@@H]3CCCN(N3)C2=O)C(C)C)CC1 [Example A338]
[1]
  IC50: 10 to 100 nM
[2]
  IC50: 10 to 100 nM
[4]
  IC50: 0.1 to 1 µM
[7]
  EC50: < 5 µM
[11]
  IC50: 10 to 100 nM

## C=CC(=O)N1CCOC2(CCN(C(=O)N(C)[C@H](C(=O)N[C@H]3CN4CCC=C(C4)c4ccc5c(c4)c(c(-c4cccnc4[C@H](C)OC)n5CC)CC(C)(C)COC(=O)[C@@H]4CCCN(N4)C3=O)C(C)C)CC2)C1 [Example A563]
[1]
  IC50: 1000 to 10000 nM
[2]
  IC50: 100 to 1000 nM
[4]
  IC50: > 10 µM
[7]
  EC50: < 5 µM
[11]
  IC50: 1000 to 10000 nM
